In patent US10479795B2 (Incyte Corporation, priority 2016, dated 2019) one finds IC50 data, which are given here for 20 molecules.

Where a name gives a salt, the structure may show the parent alone. Read-outs that look alike come from different tables or passages of the source.

Assay [1] deals with Phosphorylated Ribosomal Protein S6 (RPS6). As to the kind of experiment: THP-1 RPS6 ELISA Assay. Format: cell-based, Human. The conditions noted are these: THP-1 cells, read-out: PI3Kγ_THP1_RPS6_ELISA IC50. On the procedure:
To measure the Phosphorylated Ribosomal Protein S6 (RPS6) in cell lysates, THP-1 cells (Human Acute Monocytic Leukemia) are purchased from ATCC (Manassas, Va.) and maintained in RPMI with 10% FBS (Gibco/Life Technologies, Carlsbad, Calif.). For the assay, THP-1 cells are serum starved overnight in RPMI, then plated in RPMI (2×10^5 cells/well in 90 μL) into 96-well flat-bottom tissue culture treated plates (Corning, Corning, N.Y.), in the presence or absence of a concentration range of test compounds. Covered plates are incubated for 2 hours at 37° C., 5% CO2 then treated with or without 10 nM MCP-1 (MYBioSource, San Diego, Calif.) for 15 minutes at 37° C., 5% CO2. Plates are centrifuged at 1600 RPM and supernatants are removed. Cells are lysed in Lysis Buffer (Cell Signaling, Danvers, Mass.) with Protease Inhibitor (Calbiochem/EMD, Germany), PMSF (Sigma, St Louis Mo.), HALTS (Thermo Fisher, Rockford, Ill.) for 30 min on wet ice. Cell lysates are frozen at −80° C. before testing. The lysates are tested in the Human/Mouse/Rat Phospho-RPS6 ELISA (R&D Systems, Inc. Minn, Minn.). The plate is measured using a microplate reader (SpectraMax M5 —Molecular Devices, LLC Sunnyvale, Calif.) set to 450 nm with a wavelength correction of 540. IC50 determination is performed by fitting the curve of inhibitor percent inhibition versus the log of the inhibitor concentration using the GraphPad Prism 5.0 software.
(In general: An ELISA detects its analyte on a solid surface through an enzyme-linked reagent.)

For assay [2], the target named is PI3Kγ (p110γ) Recombinant Human Protein (Homo sapiens (Human), UniProt P48736). The experiment in a line: PI3K-γ Scintillation Proximity Assay. Format: biochemical. The conditions noted are these: read-out: PI3Kγ IC50. In outline:
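Radiometric SPA readout: […] bound to WGA beads after overnight shaking, IC50 derived from % activity of DMSO control. Reaction used human p110γ, 2 μM ATP, 20 μM PIP2, pH 6.7 MOPS buffer with MgCl2, DTT, CHAPS, 2% DMSO, room temperature.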
(In general: Scintillation proximity formats need no separation of bound from free tracer.)

Assay [3] concerns the target PI3Kδ (p110δ/p85α) Recombinant Human Protein (Homo sapiens (Human), UniProt O00329). The experiment in a line: PI3Kδ Scintillation Proximity Assay. Format: biochemical. In outline: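 Radiometric read-out: 33P-labelled PIP3 product captured on WGA SPA beads and counted, with IC50 fitted from percent activity relative to DMSO control. Enzyme (3.4 nM) was incubated 120 min at room temperature with 20 μM PIP2 and 2 μM ATP at pH 6.7, 2% DMSO.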

PI3Kδ (p110δ/p85α) Recombinant Human Protein, sequence (O00329 whole entry): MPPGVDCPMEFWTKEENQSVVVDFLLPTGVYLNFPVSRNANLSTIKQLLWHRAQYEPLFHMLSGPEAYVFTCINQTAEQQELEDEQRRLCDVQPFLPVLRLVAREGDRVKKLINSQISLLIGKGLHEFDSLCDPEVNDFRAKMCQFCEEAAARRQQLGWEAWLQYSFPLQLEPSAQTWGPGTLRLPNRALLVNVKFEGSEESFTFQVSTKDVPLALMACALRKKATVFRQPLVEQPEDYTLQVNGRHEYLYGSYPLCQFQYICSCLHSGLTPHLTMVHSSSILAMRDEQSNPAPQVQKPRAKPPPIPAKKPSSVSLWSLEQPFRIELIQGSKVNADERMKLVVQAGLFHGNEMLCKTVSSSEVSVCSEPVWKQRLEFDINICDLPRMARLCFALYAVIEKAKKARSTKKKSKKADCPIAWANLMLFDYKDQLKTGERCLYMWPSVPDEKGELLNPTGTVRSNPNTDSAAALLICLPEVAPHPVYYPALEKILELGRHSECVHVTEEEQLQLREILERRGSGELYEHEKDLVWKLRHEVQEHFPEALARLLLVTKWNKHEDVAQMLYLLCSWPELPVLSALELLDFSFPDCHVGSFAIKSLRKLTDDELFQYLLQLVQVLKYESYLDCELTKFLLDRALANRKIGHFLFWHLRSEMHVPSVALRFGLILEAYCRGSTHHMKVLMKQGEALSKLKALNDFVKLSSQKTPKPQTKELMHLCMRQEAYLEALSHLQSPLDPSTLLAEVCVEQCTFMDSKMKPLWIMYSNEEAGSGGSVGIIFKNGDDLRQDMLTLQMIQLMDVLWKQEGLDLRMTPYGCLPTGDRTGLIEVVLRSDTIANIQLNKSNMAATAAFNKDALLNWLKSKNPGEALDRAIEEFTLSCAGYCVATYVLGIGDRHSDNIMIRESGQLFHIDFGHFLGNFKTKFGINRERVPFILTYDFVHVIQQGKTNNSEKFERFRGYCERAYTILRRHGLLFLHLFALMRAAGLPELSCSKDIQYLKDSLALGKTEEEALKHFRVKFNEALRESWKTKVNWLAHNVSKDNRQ
PI3Kδ (p110δ/p85α) Recombinant Human Protein, sequence (P27986 whole entry partner): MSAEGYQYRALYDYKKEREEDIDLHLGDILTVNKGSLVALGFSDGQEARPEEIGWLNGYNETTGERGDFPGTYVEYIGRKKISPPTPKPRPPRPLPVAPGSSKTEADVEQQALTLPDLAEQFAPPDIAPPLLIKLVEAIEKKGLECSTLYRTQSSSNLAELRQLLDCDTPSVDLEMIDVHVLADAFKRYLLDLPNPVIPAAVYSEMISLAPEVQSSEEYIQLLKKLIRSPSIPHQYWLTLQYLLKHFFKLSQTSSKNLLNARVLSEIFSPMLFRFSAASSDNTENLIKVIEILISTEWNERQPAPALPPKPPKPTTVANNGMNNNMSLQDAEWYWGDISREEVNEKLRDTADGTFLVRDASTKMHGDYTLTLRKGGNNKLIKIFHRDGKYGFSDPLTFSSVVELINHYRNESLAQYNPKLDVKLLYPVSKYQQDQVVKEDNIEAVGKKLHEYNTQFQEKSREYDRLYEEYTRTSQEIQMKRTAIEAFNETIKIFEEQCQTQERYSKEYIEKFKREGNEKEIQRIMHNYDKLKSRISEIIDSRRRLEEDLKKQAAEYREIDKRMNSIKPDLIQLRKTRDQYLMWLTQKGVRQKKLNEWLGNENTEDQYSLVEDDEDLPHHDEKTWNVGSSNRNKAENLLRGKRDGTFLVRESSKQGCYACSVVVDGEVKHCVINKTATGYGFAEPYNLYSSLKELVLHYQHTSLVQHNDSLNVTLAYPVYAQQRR
PI3Kγ (p110γ) Recombinant Human Protein, sequence (P48736 whole entry): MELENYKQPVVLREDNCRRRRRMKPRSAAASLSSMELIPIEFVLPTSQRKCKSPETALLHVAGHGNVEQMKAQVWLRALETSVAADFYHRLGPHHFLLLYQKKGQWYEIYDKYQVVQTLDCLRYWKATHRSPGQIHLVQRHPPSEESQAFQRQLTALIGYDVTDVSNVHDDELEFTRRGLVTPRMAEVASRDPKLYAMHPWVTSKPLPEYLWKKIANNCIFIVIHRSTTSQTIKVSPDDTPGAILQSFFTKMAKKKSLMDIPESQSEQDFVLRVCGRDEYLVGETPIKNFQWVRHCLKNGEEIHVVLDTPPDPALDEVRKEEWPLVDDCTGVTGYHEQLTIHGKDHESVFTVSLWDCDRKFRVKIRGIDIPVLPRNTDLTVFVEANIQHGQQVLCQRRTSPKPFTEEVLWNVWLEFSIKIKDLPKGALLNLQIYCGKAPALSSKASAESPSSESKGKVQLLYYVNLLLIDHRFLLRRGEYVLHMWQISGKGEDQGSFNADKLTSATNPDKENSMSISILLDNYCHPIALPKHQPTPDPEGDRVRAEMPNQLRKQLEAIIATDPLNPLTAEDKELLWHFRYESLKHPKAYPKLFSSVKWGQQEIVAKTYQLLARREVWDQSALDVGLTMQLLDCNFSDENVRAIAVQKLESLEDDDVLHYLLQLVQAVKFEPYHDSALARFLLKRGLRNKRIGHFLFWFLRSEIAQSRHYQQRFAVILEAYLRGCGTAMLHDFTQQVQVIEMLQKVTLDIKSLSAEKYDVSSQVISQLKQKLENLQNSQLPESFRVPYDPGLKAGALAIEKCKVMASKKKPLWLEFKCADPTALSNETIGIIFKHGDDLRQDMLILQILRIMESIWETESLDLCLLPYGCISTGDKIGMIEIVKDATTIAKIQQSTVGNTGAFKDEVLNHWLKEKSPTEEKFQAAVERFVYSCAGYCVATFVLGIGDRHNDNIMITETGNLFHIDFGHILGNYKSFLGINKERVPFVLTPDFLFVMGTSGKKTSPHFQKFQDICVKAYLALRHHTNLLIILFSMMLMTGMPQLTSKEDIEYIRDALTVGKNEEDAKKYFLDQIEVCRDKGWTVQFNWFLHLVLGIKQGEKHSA

Consider `Cc1nc(N)c2ncc(-c3cc(S(=O)(=O)NCC(O)C(F)(F)F)ccc3C)n2n1` (single isomer, unassigned) [Example 266, 3-(4-Amino-2-methylimidazo[1,2-f][1,2,4]triazin-7-yl)-4-methyl-N-(3,3,3-trifluoro-2-hydroxypropyl)benzenesulfonamide (single enantiomer isolated)], for which the IC50 (usually the concentration needed to halve the response being measured) in assay [1] is 100 to 500 nM; in assay [2], under 100 nM; in assay [3], 100 to 500 nM.

Turning to `Cc1nc(N)c2ncc(-c3cc(S(=O)(=O)NCC(O)C(F)(F)F)ccc3C)n2n1` (single isomer, unassigned) [Example 267, 3-(4-Amino-2-methylimidazo[1,2-f][1,2,4]triazin-7-yl)-4-methyl-N-(3,3,3-trifluoro-2-hydroxypropyl)benzenesulfonamide (single enantiomer isolated)], the half-maximal inhibitory concentration (IC50) is 100 to 500 nM in assay [1], under 100 nM in assay [2] and 100 to 500 nM in assay [3].

Turning to `Cc1ccc(S(=O)(=O)N[C@H]2CC[C@@H](C#N)C2)cc1-c1cnc2c(N)nc(C(F)(F)F)nn12` (single isomer, unassigned) [Example 320], the results for the half-inhibitory concentration (IC50) in assay [1], in assay [2] and in assay [3] were 100 to 500 nM, under 100 nM and 100 to 500 nM, respectively.

`Cc1ccc(S(=O)(=O)N[C@H]2CC[C@@H](C#N)C2)cc1-c1cnc2c(N)nc(C(F)(F)F)nn12` (single isomer, unassigned) [Example 321]: the IC50 in assay [1], in assay [2] and in assay [3] was under 100 nM each time.

As to `Cc1ccc(S(=O)(=O)N[C@H]2CC[C@H](O)CC2)cc1-c1cnc2c(N)cccn12` [Example 1, 3-(8-Aminoimidazo[1,2-a]pyridin-3-yl)-N-(trans-4-hydroxycyclohexyl)-4-methylbenzenesulfonamide trifluoroacetate], the IC50 was over 1000 nM in assay [1] (Homo sapiens), 100 to 500 nM in assay [2] and 500 to 2000 nM in assay [3].

In the case of `CCS(=O)(=O)Nc1cc(-c2cnc3c(N)cccn23)cnc1F` [Example 2, N-[5-(8-Aminoimidazo[1,2-a]pyridin-3-yl)-2-fluoropyridin-3-yl]ethanesulfonamide bis(trifluoroacetate)], the IC50 in assay [1] (Homo sapiens) is over 1000 nM; in assay [2], 100 to 500 nM; in assay [3], 500 to 2000 nM.

On to `Cc1ccc(S(=O)(=O)N[C@H]2CC[C@H](O)CC2)cc1-c1cnc2c(N)cc(Cl)cn12` [Example 4, 3-(8-Amino-6-chloroimidazo[1,2-a]pyridin-3-yl)-N-(trans-4-hydroxycyclohexyl)-4-methylbenzenesulfonamide trifluoroacetate], for which the IC50 is under 100 nM in assay [1] (Homo sapiens), under 100 nM in assay [2] and 100 to 500 nM in assay [3].

For the molecule `CC(=O)Nc1cc(Cl)cn2c(-c3cc(S(=O)(=O)N[C@H]4CC[C@H](O)CC4)ccc3C)cnc12` [Example 5, N-[6-chloro-3-(5-{[(trans-4-hydroxycyclohexyl)amino]sulfonyl}-2-methylphenyl)imidazo[1,2-a]pyridin-8-yl]acetamide], the IC50 in assay [1] (Homo sapiens) was 100 to 500 nM; in assay [2], under 100 nM; in assay [3], 100 to 500 nM.

As for `Cc1ccc(S(=O)(=O)N[C@H]2CC[C@H](O)CC2)cc1-c1cnc2c(N)cc(-c3cnn(C)c3)cn12` [Example 8, 3-[8-Amino-6-(1-methyl-1H-pyrazol-4-yl)imidazo[1,2-a]pyridin-3-yl]-N-(trans-4-hydroxycyclohexyl)-4-methylbenzenesulfonamide bis(trifluoroacetate)], the IC50 is over 1000 nM in assay [1] (Homo sapiens), under 100 nM in assay [2] and 100 to 500 nM in assay [3].

As for `Cc1ccc(S(=O)(=O)N[C@H]2CC[C@H](O)CC2)cc1-c1cnc2c(N)cc(-c3cncnc3)cn12` [Example 9, 3-(8-Amino-6-pyrimidin-5-ylimidazo[1,2-a]pyridin-3-yl)-N-(trans-4-hydroxycyclohexyl)-4-methylbenzenesulfonamide], the IC50 is over 1000 nM in assay [1] (Homo sapiens), under 100 nM in assay [2] and 500 to 2000 nM in assay [3].

With `Cc1ccc(S(=O)(=O)N[C@H]2CC[C@H](O)CC2)cc1-c1cnc2c(N)cc(-c3ccnn3C)cn12` [Example 10, 3-[8-Amino-6-(1-methyl-1H-pyrazol-5-yl)imidazo[1,2-a]pyridin-3-yl]-N-(trans-4-hydroxycyclohexyl)-4-methylbenzenesulfonamide bis(trifluoroacetate)], the IC50 in assay [1] (Homo sapiens) is over 1000 nM; in assay [2] it was under 100 nM; in assay [3], 100 to 500 nM.

As to `Cc1ccc(S(=O)(=O)N[C@H]2CC[C@H](O)CC2)cc1-c1cnc2c(N)c(Cl)ccn12` [Example 11, 3-(8-Amino-7-chloroimidazo[1,2-a]pyridin-3-yl)-N-(trans-4-hydroxycyclohexyl)-4-methylbenzenesulfonamide trifluoroacetate], the values for the 50% inhibitory concentration (IC50) in assay [1] (Homo sapiens), in assay [2] and in assay [3] were under 100 nM, under 100 nM and 500 to 2000 nM, respectively.

Consider `Cc1ccc(S(=O)(=O)N[C@H]2CC[C@H](O)CC2)cc1-c1cnc2c(N)c(-c3cnn(C)c3)ccn12` [Example 12, 3-[8-Amino-7-(1-methyl-1H-pyrazol-4-yl)imidazo[1,2-a]pyridin-3-yl]-N-(trans-4-hydroxycyclohexyl)-4-methylbenzenesulfonamide], for which the IC50 in assay [1] (Homo sapiens) was 100 to 500 nM; in assay [2] it was under 100 nM; in assay [3] it was 100 to 500 nM.

Consider `Cc1ccc(S(=O)(=O)N[C@H]2CC[C@H](O)CC2)cc1-c1cnc2c(N)nccn12` [Example 13, 3-(8-Aminoimidazo[1,2-a]pyrazin-3-yl)-N-(trans-4-hydroxycyclohexyl)-4-methylbenzenesulfonamide], for which the 50% inhibitory concentration (IC50) was 100 to 500 nM in assay [1] (Homo sapiens), under 100 nM in assay [2] and 100 to 500 nM in assay [3].

For the molecule `CCS(=O)(=O)Nc1cc(-c2cnc3c(N)nccn23)cnc1F` [Example 14, N-[5-(8-Aminoimidazo[1,2-a]pyrazin-3-yl)-2-fluoropyridin-3-yl]ethanesulfonamide bis(trifluoroacetate)], the IC50 is over 1000 nM in assay [1] (Homo sapiens), under 100 nM in assay [2] and under 100 nM in assay [3].

Regarding `Cc1ccc(S(=O)(=O)NCC2(C)COC2)cc1-c1cnc2c(N)nccn12` [Example 15, 3-(8-Aminoimidazo[1,2-a]pyrazin-3-yl)-4-methyl-N-[(3-methyloxetan-3-yl)methyl]benzenesulfonamide trifluoroacetate], the IC50 in assay [1] (Homo sapiens) was over 1000 nM; in assay [2], under 100 nM; in assay [3], 500 to 2000 nM.

For `Cc1ccc(S(=O)(=O)N[C@H]2CC[C@H](O)CC2)cc1-c1cnc2c(N)nc(Br)cn12` [Example 16, 3-(8-Amino-6-bromoimidazo[1,2-a]pyrazin-3-yl)-N-(trans-4-hydroxycyclohexyl)-4-methylbenzenesulfonamide], the concentration for half-maximal inhibition (IC50) in assay [1] (Homo sapiens), in assay [2] and in assay [3] was under 100 nM throughout.

For the molecule `Cc1ccccc1-c1cn2c(-c3cc(S(=O)(=O)N[C@H]4CC[C@H](O)CC4)ccc3C)cnc2c(N)n1` [Example 17, 3-[8-Amino-6-(2-methylphenyl)imidazo[1,2-a]pyrazin-3-yl]-N-(trans-4-hydroxycyclohexyl)-4-methylbenzenesulfonamide], the figures for the IC50 in assay [1] (Homo sapiens), in assay [2] and in assay [3] were 100 to 500 nM, under 100 nM and 100 to 500 nM, respectively.

As for `Cc1ccc(-c2cn3c(-c4cc(S(=O)(=O)N[C@H]5CC[C@H](O)CC5)ccc4C)cnc3c(N)n2)cc1` [Example 18, 3-[8-Amino-6-(4-methylphenyl)imidazo[1,2-a]pyrazin-3-yl]-N-(trans-4-hydroxycyclohexyl)-4-methylbenzenesulfonamide], the IC50 was under 100 nM in assay [1] (Homo sapiens), under 100 nM in assay [2] and 100 to 500 nM in assay [3].

On to `Cc1cccc(-c2cn3c(-c4cc(S(=O)(=O)N[C@H]5CC[C@H](O)CC5)ccc4C)cnc3c(N)n2)c1` [Example 19, 3-[8-Amino-6-(3-methylphenyl)imidazo[1,2-a]pyrazin-3-yl]-N-(trans-4-hydroxycyclohexyl)-4-methylbenzenesulfonamide], for which the IC50 in assay [1] (Homo sapiens) is under 100 nM; in assay [2], under 100 nM; in assay [3], 100 to 500 nM.
